The values that follow come from patent US4301163A, “Amino-ether oxides and use thereof in therapy” (priority 1979, dated 1981).

A short description of one data set: in vivo. Conditions: mouse. How it is done:
The acute toxicity of the products of the invention was determined on groups of 20 Swiss OF1 mice weighing 22 to 24 grams by intravenous route.

Another data set has as its system cornea of the rabbit. Briefly: Local anaesthetic activity on contact, rabbit cornea (derived from Regnier). Particulars: for Local anaesthetic activity: effect compared with lidocaine: 1% solution, relative to lidocaine hydrochloride at identical concentration, rabbit cornea; for local anaesthesia/lidocaine hydrochloride index: relative index I from activity and relative toxicity, calculated in mmoles. The data set is classed as in vivo, rabbit (male albino). The method, then:
The local anaesthetic activity on contact is determined on the cornea of the rabbit according to a method derived from the technique of Regnier (Regnier J. R. Salle P. Bull. Soc. Pharmacol. 1926 33, 91).
Male albino rabbits weighing 2 to 3 kg are used in groups of 5. The product solution to be tested is injected in a volume of 0.2 ml into the conjunctival sac. The cornea is then stimulated by means of a hair 3, 6, 10, 15, 20, 25, 45 and 60 minutes after injection.
The local anaesthetic activity is thus expressed in relation to this reference product.

The next data set relates to rat duodenum. Briefly: Spasmolytic activity in vitro against barium chloride, isolated rat duodenum. Conditions: for Spasmolytic activity compared with papaverine hydrochloride / spasmolytic index/papaverine hydrochloride: rat duodenum; for Spasmolytic activity compared with papaverine hydrochloride: BaCl2 50 mg/l, relative EC50 comparison; for spasmolytic index/papaverine hydrochloride: relative index I from activity and relative toxicity, calculated in mmoles; for relative index of spasmolytic activity compared with papaverine: summary statement, times higher than the reference. How it is done: (§1) The spasmolytic activity of the products was studied in vitro with regard to two distinct agonists, namely:
(§2) The organ fragments were kept alive in a tank containing a solution of Tyrode (37° C., pH 7.2, oxygenated by the mixture O2 /CO2, 95%/5%).
(§3) The isotonic contractions were recorded graphically on a physiograph by means of a transducer. […] The values obtained are compared with those of spasmolytic agents selected as reference and are determined under the same experimental conditions, namely:
papaverine hydrochloride for the convulsant effect of barium chloride;

Another data set deals with guinea-pig ileum. Briefly: Spasmolytic activity in vitro against nicotine, isolated guinea-pig ileum. Particulars: for Spasmolytic activity compared with hexamethonium dibromide: nicotine 1 mg/l, relative EC50 comparison; for spasmolytic index/hexamethonium dibromide: relative index I from activity and relative toxicity, calculated in mmoles. The method, then:
as §1, §2, §3
hexamethonium dibromide for the convulsant effect of nicotine (table V).

In data set [1] the test system is inflammation in the paw of the rat. Description: Analgesic activity, brewer's yeast paw inflammation pressure test (derived from Randall and Selito). The data set is classed as in vivo, rat (male Sprague-Dawley). Particulars: 100 mg/kg oral, 1 hour after administration. The method, then:
The analgesic activity of the products was studied on male Sprague-Dawley rats in groups of 15 by a method derived from that of Randall and Selito (Arch. Int. Pharmacodyn. 1957 (III) page 409). This method consists in causing a painful inflammation in the paw of the rat by injecting 0.1 ml of a 20% brewer's yeast solution, then applying a pressure to the inflammation and determining the value of the pressure at which a painful reaction of the animal appears.
The activity of the products was studied after 1 hour of administration by oral route at the rate of one dose of 100 mg/kg in comparison with untreated animals. In this test aspirin was chosen as reference substance.
The analgesic effect of the products is expressed by the percentage increase of the pressure endured by the treated animals in relation to that endured by the untreated animals.
The results of the analgesic activity of the product tested are expressed in relation to the activity of aspirin administered by oral route at a dose of 100 mg/kg.

The mark [2] stands for this setting: reference substances, mice, intravenous.

With `CCC(COc1ccc(OC)cc1)(c1ccccc1)N(C)C` (stereo not drawn) [Example 21, 1-[(4-methoxy)phenoxymethyl]-1-phenyl-N,N-dimethyl-n-propylamine], in “in vivo” (iv), the LD50 at 192 h came to 140 mg/kg. Moreover, in the data set with cornea of the rabbit, the “Local anaesthetic activity: effect compared with lidocaine” value is given as 0.45 and the “local anaesthesia/lidocaine hydrochloride index” value was 2.00. In the data set on rat duodenum, the “Spasmolytic activity compared with papaverine hydrochloride” value turned out to be 1.7, the spasmolytic index/papaverine hydrochloride is 7.28 and the “relative index of spasmolytic activity compared with papaverine” value is given as “up to seven”. For the same compound, in the data set on guinea-pig ileum, the “Spasmolytic activity compared with hexamethonium dibromide” value is on record as 1.7 and the spasmolytic index/hexamethonium dibromide is listed as 11.33.

In the data set “in vivo” (iv), `COc1ccc(CC(C)(COCc2ccccc2)N(C)C)cc1OC` (stereo not drawn) [Example 18] yielded an LD50 at 192 h of 27.3 mg/kg.

Turning to `CCC(CN(C)C)(Oc1ccc(OC)cc1)c1ccccc1` (stereo not drawn) [Example 22, 2-[(4-methoxy)phenoxy]-2-phenyl-N,N-dimethyl-n-butylamine], the LD50 at 192 h in the data set “in vivo” (iv) came to 59.6 mg/kg.

In “in vivo” (setting [2]), `C[N+](C)(C)CCCCCC[N+](C)(C)C` [hexamethonium, reference compound] displayed an LD50 at 192 h of 21 mg/kg.

For the compound `CCC(COCc1ccccn1)(c1ccccc1)N(C)C` (stereo not drawn) [Example 9], the LD50 at 192 h in the data set “in vivo” (iv) is 39 mg/kg. Moreover, in the data set on cornea of the rabbit, the “Local anaesthetic activity: effect compared with lidocaine” value was 0.7 and the “local anaesthesia/lidocaine hydrochloride index” value was 0.875. In the data set on rat duodenum, the “Spasmolytic activity compared with papaverine hydrochloride” value is recorded as 0.4 and the spasmolytic index/papaverine hydrochloride is 0.475. In the data set on guinea-pig ileum, the “Spasmolytic activity compared with hexamethonium dibromide” value was determined as 1.4 and the spasmolytic index/hexamethonium dibromide is 2.62.

Compound `CCC(CN(C)C)(OCc1cc(OC)c(OC)c(OC)c1)c1ccccc1` (stereo not drawn) [Example 11, 2-[(3,4,5-trimethoxy)benzyloxy]-2-phenyl-N,N-dimethyl-n-butylamine] had an LD50 at 192 h in “in vivo” (iv) of 46.7 mg/kg. In the data set with cornea of the rabbit, the “Local anaesthetic activity: effect compared with lidocaine” value is on record as 1.0 and the “local anaesthesia/lidocaine hydrochloride index” value is 1.49. Further, in the data set with rat duodenum, the “Spasmolytic activity compared with papaverine hydrochloride” value came to 1.9 and the spasmolytic index/papaverine hydrochloride is given as 2.69. Further, in the data set on guinea-pig ileum, the “Spasmolytic activity compared with hexamethonium dibromide” value turned out to be 2.6 and the spasmolytic index/hexamethonium dibromide is reported as 5.76. For the same compound, the “Analgesic activity in relation to aspirin” value (from here on “Analgesic activity”) in data set [1] is listed as 2.3.

As for `COc1ccc(CCC(C)(COCc2cc(OC)c(OC)c(OC)c2)N(C)C)cc1OC` (stereo not drawn) [Example 19], the LD50 at 192 h in the data set “in vivo” (iv) was found to be 30.7 mg/kg. In the data set on cornea of the rabbit, the “Local anaesthetic activity: effect compared with lidocaine” value is on record as 0.95 and the “local anaesthesia/lidocaine hydrochloride index” value is listed as 0.92.

On to `CCC(COCc1ccccc1)(c1ccccc1)N(C)C` (stereo not drawn) [Example 3, 1-Benzyloxymethyl-1-phenyl-N,N-dimethyl-n-propylamine], for which the LD50 at 192 h in “in vivo” (iv) was 41.4 mg/kg. In the data set on cornea of the rabbit, the “Local anaesthetic activity: effect compared with lidocaine” value is listed as 1.4 and the “local anaesthesia/lidocaine hydrochloride index” value is reported as 1.85. Also, in the data set on rat duodenum, the “Spasmolytic activity compared with papaverine hydrochloride” value turned out to be 0.9 and the spasmolytic index/papaverine hydrochloride is 1.125. Further, in the data set with guinea-pig ileum, the “Spasmolytic activity compared with hexamethonium dibromide” value is recorded as 3.4 and the spasmolytic index/hexamethonium dibromide is 6.69.

The compound `COc1ccc(Cc2nccc3cc(OC)c(OC)cc23)cc1OC` [papaverine, reference compound] had a 50% lethal dose (LD50) at 192 h in “in vivo” (setting [2]) of 33.1 mg/kg.

As to `CCC(COc1ccccn1)(c1ccccc1)N(C)C` (stereo not drawn) [Example 7], in “in vivo” (iv), the LD50 at 192 h came to 37 mg/kg. In addition, in the data set with cornea of the rabbit, the “Local anaesthetic activity: effect compared with lidocaine” value came to 1.1 and the “local anaesthesia/lidocaine hydrochloride index” value was 1.30. For the same compound, in the data set with rat duodenum, the “Spasmolytic activity compared with papaverine hydrochloride” value turned out to be 1.7 and the spasmolytic index/papaverine hydrochloride is listed as 1.89. Further, in the data set with guinea-pig ileum, the “Spasmolytic activity compared with hexamethonium dibromide” value is given as 1.0 and the spasmolytic index/hexamethonium dibromide is reported as 1.75.

Turning to `CCC(COCc1ccc(OC)c(OC)c1)(c1ccccc1)N(C)C` (stereo not drawn) [Example 1, 1-[(3,4-dimethoxy)benzyloxymethyl]-1-phenyl-N,N-dimethyl-n-propylamine], the LD50 at 192 h in the data set “in vivo” (iv) turned out to be 30 mg/kg. In the data set on cornea of the rabbit, the “Local anaesthetic activity: effect compared with lidocaine” value is 1.6 and the “local anaesthesia/lidocaine hydrochloride index” value is listed as 1.52. In the data set on rat duodenum, the “Spasmolytic activity compared with papaverine hydrochloride” value is 2.7 and the spasmolytic index/papaverine hydrochloride was 2.45. For the same compound, in the data set with guinea-pig ileum, the “Spasmolytic activity compared with hexamethonium dibromide” value is 0.9 and the spasmolytic index/hexamethonium dibromide is reported as 1.29. For the same compound, the “Analgesic activity” value in data set [1] is 1.

`CCC(COCc1cc(OC)c(OC)c(OC)c1)(NC)c1ccccc1` (stereo not drawn) [Example 12, 1-[(3,4,5-trimethoxy)benzyloxymethyl]-1-phenyl-N-methyl-n-propylamine] registered an LD50 at 192 h in the data set “in vivo” (iv) of 34 mg/kg. Also, in the data set on cornea of the rabbit, the “Local anaesthetic activity: effect compared with lidocaine” value is reported as 1.7 and the “local anaesthesia/lidocaine hydrochloride index” value is 1.84. Further, in the data set with rat duodenum, the “Spasmolytic activity compared with papaverine hydrochloride” value is 1.2 and the spasmolytic index/papaverine hydrochloride was 1.24. Also, in the data set with guinea-pig ileum, the “Spasmolytic activity compared with hexamethonium dibromide” value is 2.3 and the spasmolytic index/hexamethonium dibromide is on record as 4.09.

Consider `Cc1ccc(COCC(C)(c2ccc(Cl)c(Cl)c2)N(C)C)cc1` (stereo not drawn) [Example 15], for which, in “in vivo” (iv), the LD50 at 192 h is 160 mg/kg.

Take `CCCCOCC(CC)(c1ccccc1)N(C)C` (stereo not drawn) [Example 4]: the LD50 at 192 h in the data set “in vivo” (iv) was 26.8 mg/kg.

For the compound `CCC(COCc1cccnc1)(c1ccccc1)N(C)C` (stereo not drawn) [Example 10], the 50% lethal dose (LD50) at 192 h in “in vivo” (iv) came out at 43 mg/kg. Besides, in the data set with rat duodenum, the “Spasmolytic activity compared with papaverine hydrochloride” value turned out to be 0.4 and the spasmolytic index/papaverine hydrochloride is reported as 0.525. Moreover, in the data set on guinea-pig ileum, the “Spasmolytic activity compared with hexamethonium dibromide” value was found to be 1.7 and the spasmolytic index/hexamethonium dibromide was 3.50. In addition, in data set [1], the “Analgesic activity” value is reported as 1.8.

With `CCC(COCc1cc(OC)c(OC)c(OC)c1)(c1ccccc1)N(C)C` (stereo not drawn) [Example 2, 1-[(3,4,5-trimethoxy)benzyloxymethyl]-1-phenyl-N,N-dimethyl-n-propylamine], the LD50 at 192 h in the data set “in vivo” (iv) worked out at 42 mg/kg. In the data set on cornea of the rabbit, the “Local anaesthetic activity: effect compared with lidocaine” value is listed as 2.2 and the “local anaesthesia/lidocaine hydrochloride index” value is listed as 2.95. Also, in the data set with rat duodenum, the “Spasmolytic activity compared with papaverine hydrochloride” value was determined as 5.4, the spasmolytic index/papaverine hydrochloride is reported as 6.90 and the “relative index of spasmolytic activity compared with papaverine” value is “up to seven”. Moreover, in the data set with guinea-pig ileum, the “Spasmolytic activity compared with hexamethonium dibromide” value was found to be 1.2 and the spasmolytic index/hexamethonium dibromide is 2.42.

In turn, `CCC(COCc1ccc(C)cc1)(c1ccccc1)N(C)C` (stereo not drawn) [Example 6] gave an LD50 at 192 h in the data set “in vivo” (iv) of 48.6 mg/kg.

Compound `COc1ccc(CC(C)(N)COCc2ccccc2)cc1OC` (stereo not drawn) [Example 17, 1-Benzyloxymethyl-1-methyl-(3,4-dimethoxy)-phenethyl-amine] had an LD50 at 192 h in the data set “in vivo” (iv) of 51.6 mg/kg.

As for `CCCCCCCCCCOCC(CC)(c1ccccc1)N(C)C` (stereo not drawn) [Example 5], the LD50 at 192 h in “in vivo” (iv) came out at 37 mg/kg. In addition, in the data set with rat duodenum, the “Spasmolytic activity compared with papaverine hydrochloride” value was 0.5 and the spasmolytic index/papaverine hydrochloride is listed as 0.56. In the data set on guinea-pig ileum, the “Spasmolytic activity compared with hexamethonium dibromide” value is 2.2 and the spasmolytic index/hexamethonium dibromide is listed as 3.85. For the same compound, in data set [1], the “Analgesic activity” value is recorded as 2.5.

With `CC(=O)Oc1ccccc1C(=O)O` [aspirin, reference compound], the “Analgesic activity” value in data set [1] was 1.

As for `COc1ccc(C(C)(COCc2ccc(Cl)cc2)N(C)C)cc1` (stereo not drawn) [Example 13], in the data set “in vivo” (iv), the LD50 at 192 h turned out to be 48.4 mg/kg. Further, in the data set with cornea of the rabbit, the “Local anaesthetic activity: effect compared with lidocaine” value is reported as 1.1 and the “local anaesthesia/lidocaine hydrochloride index” value was 1.71.
